Measurements from patent publication US10638779B2, “Hemiacetyl proflavors” (FIRMENICH SA, priority 2014, dated 2020).

Columns and labels:
[1] = Assessment of hydrolysis rate at pH 3.0 (acetaldehyde release, UV/Vis 276 nm); format: physicochemical; conditions: for Half life (s) at pH 3.0 / half-life: pH 3.0 citrate buffer, stirring at 200 rpm, first order release of acetaldehyde, measured for this work; for Acetaldehyde release rate relative to Comparative Samples 2-5: pH 3.0; for half-life: read-out: Half life (s) at pH 3.0 (converted)
Method: Assessment of Hydrolysis Rate at pH 3.0
Instant beverage applications require rapid hydrolysis of the precursor molecules in order to rapidly release acetaldehyde. Because such beverages might be consumed immediately upon preparation, it is desired for the release to be as rapid as possible.
A pH 3.0 buffer solution was prepared by adding 16.43 g citric acid (CAS 77-92-9) and 4.26 g disodium citrate (CAS 144-33-2) to 1 L of deionized water. Aliquots of the Examples 1, 2 and 10 preparations were added to the buffer solution within a Distek 2100B USP 2 dissolution system stirring at 200 rpm. The concentration of acetaldehyde in solution was monitored as a function of time using a UV/Vis spectrometer probe which measured absorbance at 276 nm every 1 second. Results for comparative samples were taken from work by Gassenmeier et al.. A sample of acetaldehyde diethyl acetal was also measured directly and the result was similar to that reported by Gassenmeier et al. Examples 1, 2 and 10 released acetaldehyde faster than Comparative Samples 2-5.

[2] = Assessment of hydrolysis rate under spray drying feed conditions (pH 8.0 buffer/limonene emulsion); format: physicochemical; conditions: for t50 values relative to Comparative Sample 1: pH 8.0 emulsion; for t50 at pH 8.0 (time to 50% of the maximum absorbance): pH 8.0 phosphate buffer, 0.20 g in 0.8 g limonene added to 10 g buffer (emulsion)
Method: Assessment of Hydrolysis Rate Under Spray Driving Feed Conditions
Acetaldehyde precursors suitable for rendering into dry powders must avoid releasing significant levels of acetaldehyde during various stages of processing. In particular they should resist hydrolysis during the preparation of a spray drying feed emulsion, which can be neutral to basic pH and can contain a significant volume fraction of an oil phase.
A pH 8.0 buffer solution was prepared by adding 49.92 g disodium phosphate heptahydrate (CAS 7782-85-6) and 1.93 g monosodium phosphate (CAS 7558-80-7) to 1 L of deionised water. Aliquots of 0.20 g of the Examples 1, 2 and 10 preparations were dissolved in 0.8 g of limonene (CAS 5989-25-7) added to 10 g of the buffer solution within a 30 mL Erlenmeyer flask containing a stir bar. The concentration of acetaldehyde in solution was monitored as a function of time using a UV/Vis spectrometer probe measuring absorbance at 276 nm. Stirring was periodically stopped to allow oil droplets to rise to the surface and collect an unobscured absorbance reading of the aqueous solution. Release followed mixed zero and first order kinetics. t50 (the time to 50% of the maximum absorbance) values are reported in Table 2. Comparative Sample 1 has t50 of 2.1 minutes, which is so short that a person skilled in the art would consider this compound at risk of experiencing a problematic degree of hydrolysis during processing.

Half life (s) at pH 3.0 [1] [s]	Acetaldehyde release rate relative to Comparative Samples 2-5 [1]	half-life [1] [s]	t50 values relative to Comparative Sample 1 [2]	t50 at pH 8.0 (time to 50% of the maximum absorbance) [2] [min]	Compound
539					CCOC(C)OCC [Comparative Sample 2, Acetaldehyde diethyl acetal, reference compound]
	faster	96	longer	14.0	CCOC(C)OC(=O)CCC(=O)OC(C)OCC (stereo not drawn) [Example 1, Bis(1-ethoxyethyl) succinate]
	faster	185	longer	44.6	CCOC(C)OC(=O)CCCCC(=O)OC(C)OCC (stereo not drawn) [Example 2, Bis(1-ethoxyethyl) adipate]
31	faster			2.1	CCOC(C)OC(C)=O (stereo not drawn) [Example 10, 1-ethoxyethyl acetate, reference compound]
